Assay results: patent US7498029B2, “Photoimmunotherapies for cancer using combination therapies” (The General Hospital Corporation, priority 2001, dated 2009)
“Also recorded” adds a separate entry of the source.

Experiments:
[1] = Fluorescence decay and relative fluorescence quantum yield; assay type: physicochemical; details: 50% DMSO/50% aqueous solution
Method: In order to assess how conjugation to the antibody affected the ability of BPD to generate phototoxic species, relative fluorescence quantum yields and fluorescence decay signals for free BPD and for the various BPD PIC preparations were measured. Although fluorescence is a photophysical property of the singlet excited state of a photosensitizer, fluorescence quantum yields and decay times generally correlate with a photosensitizer's ability to generate phototoxic species. This correlation stems from the fact that a photosensitizer's phototoxic quantum yield usually correlates with its triplet quantum yield. […]
Fluorescence properties were measured in 50% DMSO/50% aqueous solutions in order to overcome the tendency of BPD to aggregate in a purely aqueous solution. Relative fluorescence quantum yields for free BPD and for various PIC samples with varying BPD:antibody molar loading ratios were calculated from the ratios of the slopes of fluorescence emission intensity versus absorbance plots. The fluorescence emission intensity versus absorbance plot for a given sample was generated by measuring the emission intensities of a series of dilute solutions prepared from a concentrated stock solution of the sample. […] Fluorescence emission intensity was measured as the area under the fluorescence emission peak in the 650 to 800 nm range. […]

[2] = Solubility and stability in DMSO/aqueous solutions and on storage; assay type: physicochemical; details: DMSO/aqueous solution
[3] = test system: EGFR-overexpressing A-431 cells; assay: Phototoxicity and competition studies, MTT assay; assay type: cell-based, human; details: incubation periods much shorter than 6 hours
Method: Preliminary phototoxicity studies were conducted using EGFR-overexpressing A-431 cells.
Cells were plated in 2 ml of media in 35 mm tissue culture dishes at densities such that the cells reached approximately 60 to 80% confluence at the end of a three-day growth period. Following an initial period of at least 14 to 20 hours, which allowed for cells to attach and begin dividing, incubation with PICs or free BPD was initiated by replacing the original 2 ml of media with 2 to 4 ml of medium containing PIC or free BPD. Incubations were done at 37° C. and were begun with respect to the end of the three-day growth period. At the end of the three-day growth period, the medium containing PIC or free BPD was removed. Cells were washed once with 2 ml of DPBS, and 2 ml of fresh medium was added back to each dish. Cells were then immediately irradiated with the requisite light dose. Following irradiation, cells were incubated overnight at 37° C. and then assayed for viability by the calorimetric MTT assay (Mosmann, 1983). Except for the intended light dose, care was taken to protect the cells from light exposure at all times.
The radiation source was a dye laser pumped by an argon ion laser (models CR-599 and Innova 100, respectively, Coherent Inc., Palo Alto, Calif.). […]
NIH:OVCAR-5 cells [4] = assay: Long term survival, intraperitoneal ovarian carcinoma xenograft; assay type: in vivo, mice
Description: A different group of animals was utilized to investigate survivability. Animals with rapid tumor progression leading to uncontrollable ascites or systemic illness were sacrificed. Animals were sacrificed based on the following parameters: loss of more than 15% body weight, severe pain not relieved by analgesics, self-mutilating behavior, inability or unwillingness to eat or drink, and weight gain of more than 20% body weight. At the time of necropsy, samples were weighed and collected as previously described.

[5] = Body weight loss of xenograft mice; assay type: in vivo; details: before tumor cell injection to day 21
Description: Animals were weighed before tumor cell injection, and before sacrifice at day 21.

CHO-ERBB2 cells = assay: PDT/PIT phototoxicity, MTT assay, CHO-ERBB2 cells; assay type: cell-based; details: 140 nM, light dose of 2 J/cm^2, MTT 24 hours after illumination
Method: (§1) This light was focused to a spot of 3.5 cm diameter, which corresponded to a power density of circa 40 mW/cm^2.
(§2) To determine the survival fraction of cells after treatment, the 3-(4,5-dimethylthiazol-2-yl)-2,5-diphenyltetrazolium bromide (“MTT”) assay, which measured mitochondrial dehydrogenase activity, was used. Cells were incubated with 0.5 mg/ml MTT for 1 hour to measure its reduction by mitochondrial dehydrogenases.

OVCAR-5 cells = assay: PDT/PIT phototoxicity, MTT assay, OVCAR-5 cells; assay type: cell-based, human; details: with light, dose giving 50% survival after 24 hours, compared to control cells
Method: as §1, §2
The MTT assay was performed 24 and 72 hours after treatment.

EGFR = target: T1, EGFR (Homo sapiens, UniProt P00533); assay: EGF-induced EGFR phosphorylation, Western blot in OVCAR 5 cells; assay type: cell-based; details: 10 ng/ml EGF 15 min
T1 construct: endogenous in cells; host or cells: OVCAR 5 cells
Method: (§3) Twenty-four hours after photodynamic treatment as described above, OVCAR 5 cells in the groups to be stimulated with EGF were incubated for 15 min with 10 ng/ml EGF in prewarmed culture medium. The groups that were not stimulated with EGF only received prewarmed culture medium. After the 15 minute incubation, cells were kept on ice and cell lysates were collected in RIPA buffer (containing 0.1% SDS and 1% NP-40). After protein determination by a modified Lowry assay (Biorad, Hercules, Calif.), the proteins were run on SDS-PAGE, transferred to a polyvinylidene diflouride (PVDF) membrane (Immobilon-P, Millipore, Bedford, Mass.) and probed with the first antibody. To detect the phosphorylation of the EGFR, the anti-phosphotyrosine antibody 4G10 (New England Biolabs; Beverly, Mass.) was used. A secondary goat anti-mouse antibody, coupled to horseradish peroxidase (Biorad), was used in combination with a chemiluminescence kit (Amersham, Arlington Heights, Ill.) to visualize the specific bands. Western blots were reprobed with anti-actin (Santa Cruz Biotechnology, Santa Cruz, Calif.) to control for equal loading.

Akt-1 = assay: EGF-induced Akt-1 phosphorylation, Western blot in OVCAR-5 cells; assay type: cell-based, human
Method: as §3
(§4) Two important pathways which are regulated by EGFR are the PI3K-Akt/PKB-1 and the Ras-MAPK/ERK pathway. These signaling molecules are implicated in a variety oncogenic pathways. […]

MAPK/ERK = assay: EGF-induced MAPK/ERK phosphorylation, Western blot in OVCAR-5 cells; assay type: cell-based, human
Method: as §3, §4

NIH:OVCAR-5 cells [6] = assay: Tumoricidal response, intraperitoneal ovarian carcinoma xenograft, tumor burden at day 21; details: for Tumor Burden: necropsy day 21; for Survival Fraction: tumor burden relative to no treatment
Method: NIH:OVCAR-5 cells were obtained from the Fox Chase Cancer Institute (Philadelphia, Pa.). Cells were grown in RPMI-1640 media (Mediatech Inc, Herndon, Va.) supplemented with 10% heat-inactivated fetal calf serum (GIBCO Life Technologies, Grand Island, N.Y.), and 100 U/ml penicillin and 100 μg/ml streptomycin. The cells were maintained in an incubator at 37° C. in an atmosphere of 5% CO2. At the time of NIH:OVCAR-5 cell injection, mice were given a numeric ear tag. Animals were anesthetized before the cell injection with 0.03 ml of a ketamine/xylazine mixture (ketamine, 120 mg/kg; xylazine, 15 mg/kg).
Intraperitoneal (“i.p.”) PDT in the nude mice was performed as previously described (Molpus et al., 1996a). On day 10 and 20 after tumor cell injection, mice in BPD treatment and/or control groups 2, 4, 6, and 8 were injected with 0.25 mg/kg body weight of liposomal BPD-MA i.p. 90 minutes prior to light exposure. Light was not administered to animals in groups 1, 2, 5, and 6. BPD-MA solutions were prepared immediately prior to use in sterile PBS (total of 1 ml). All work involving BPD-MA was performed in subdued lighting.
Animals which had to be illuminated were injected with 2 mL of a 0.1% intralipid solution i.p. prior to illumination to enhance light scattering. Animals were anesthetized with 0.03 ml of a ketamine/xylazine mixture (ketamine, 35 mg/ml; xylazine, 5 mg/ml). A solid state diode laser was used for illumination (BWF 690-1, B&W TEK, Newark, Del.), which delivers monochromatic light (690+/−5 nm) to overlap closely the absorption maximum of BPD-MA (690 nm), at a maximum power from the diode of 1 W. Alternatively, an argon-pumped dye laser (Coherent) was used to deliver 690 nm light i.p. via a cylindrically diffusing fiberoptic tip (8.0 mm×0.4 mm). The fiber, connected to the Argon-pumped dye laser or the solid state diode laser was introduced into the peritoneal cavity of a supine anesthetized animal via a centrally placed 22-gauge catheter traversing the abdominal cavity. A total of 20 J of light was delivered, at a fluence rate of 100-200 mw/cm^2. Of the total light energy, one fourth (5 J) was delivered to each i.p. quadrant over equivalent time periods. At the completion of the treatment, the mice were allowed to recover in an animal warmer until they awoke and resumed normal activity.
Two endpoints were studied. The first endpoint studied was short-term tumor weight. The second endpoint studied was long-term survival. In the short-term tumor weight studies, animals were sacrificed on day 21 to assess acute treatment effects. Animals were also carefully examined for the presence of distinct extra-abdominal metastasis. Representative tissue samples were examined pathologically via hematoxylin and eosin staining.
Tumoricidal response was assessed by comparing the extent of gross residual disease in treated animals to the extent of disease in untreated controls. Using the distribution pattern of the tumor in the OVCAR-5 human xenograft mouse model, which 20 was previously described (Molpus et al., 1996b), the sites where tumor was consistently present were dissected.

[7] = no light, BPD […] i.p. days 10, 20, C225 0.5 mg i.p. days 11, 14, 17, 19
[8] = with light (20 J, 690 nm i.p.), same doses

## BPD Verteporfin
[1]; emission 700 nm
  weighted-average fluorescence decay lifetime: 6.02 ns
[1]; excitation 428 nm
  relative fluorescence quantum yield: 1.00
[2]
  DMSO content above which free BPD goes from predominantly aggregated to predominantly disaggregated monomeric state: > 40%
[3]
  phototoxic cell killing: greater than 90%
NIH:OVCAR-5 cells [4]; comparison of survival curves, PDT and combination with light, C225 alone without
  survival compared with untreated mice: significantly longer survival rates
NIH:OVCAR-5 cells [4]; with light, 9 mice per group
  mice still alive after 6 months (180 days): 10%
NIH:OVCAR-5 cells [4]; with light, days on which 50% of the mice have died
  50% alive: 36 (CI 32-90) days
[5]; [7]
  Weight Loss In Grams: 2.01 Grams
[5]; [8]
  Weight Loss In Grams: 2.14 Grams
CHO-ERBB2 cells
  viability: less than 20%
OVCAR-5 cells
  increase in MTT activity between the 24 and 72 hours time-point: 15%
EGFR; 140 nM alone, no light
  EGF-induced EGFR phosphorylation: reacted like control cells
EGFR; 140 nM plus light
  EGF-induced EGFR phosphorylation: did not inhibit; also recorded: no inhibitory effect
Akt-1; alone, no light
  EGF-induced phosphorylation of Akt-1: responded like control cells
Akt-1; plus light
  EGF-induced phosphorylation of Akt-1: did not have an inhibitory effect; also recorded: not by treatment with BPD plus light
MAPK/ERK; alone, no light
  EGF-induced phosphorylation of MAPK/ERK: responded like control cells
MAPK/ERK; plus light
  EGF-induced phosphorylation of MAPK/ERK: did not have an inhibitory effect; also recorded: not by treatment with BPD plus light
NIH:OVCAR-5 cells [6]; Steel-Peckham interaction of the components in the formula, with light (hv)
  DL: 0.493
NIH:OVCAR-5 cells [6]; Steel-Peckham interaction, with light (hv)
  Effect: synergistic
NIH:OVCAR-5 cells [6]; no light
  lnSF: −0.4084
  Survival Fraction: 0.69
NIH:OVCAR-5 cells [6]; [7]
  Tumor Burden: 469 mg
NIH:OVCAR-5 cells [6]; with light
  lnSF: −0.962
  Survival Fraction: 0.38
NIH:OVCAR-5 cells [6]; [8]
  Tumor Burden: 261 mg
NIH:OVCAR-5 cells [6]; with light, day 21
  tumor burden as % of the no treatment control group: 38%
  tumor burden in the bowel mesentery: statistically significant reduction in tumor burden
